According to ChEMBL document CHEMBL1201862, “PubChem BioAssay data set” (2004):
Calls of active or inactive are those of the source.

Columns and labels:
[1] = microbe, parasite or virus in culture; assay type: functional; details: Mycobacterium tuberculosis
Vero = assay: viability of Vero cells under compound – cytotoxicity control for flavivirus capping enzyme inhibitors (AID 588742); assay type: functional; details: Chlorocebus sabaeus
CAAX prenyl protease 2 = CAAX prenyl protease 2 (Saccharomyces cerevisiae S288c, UniProt Q03530); assay type: biochemical
Sequence of CAAX prenyl protease 2 (Q03530 whole entry): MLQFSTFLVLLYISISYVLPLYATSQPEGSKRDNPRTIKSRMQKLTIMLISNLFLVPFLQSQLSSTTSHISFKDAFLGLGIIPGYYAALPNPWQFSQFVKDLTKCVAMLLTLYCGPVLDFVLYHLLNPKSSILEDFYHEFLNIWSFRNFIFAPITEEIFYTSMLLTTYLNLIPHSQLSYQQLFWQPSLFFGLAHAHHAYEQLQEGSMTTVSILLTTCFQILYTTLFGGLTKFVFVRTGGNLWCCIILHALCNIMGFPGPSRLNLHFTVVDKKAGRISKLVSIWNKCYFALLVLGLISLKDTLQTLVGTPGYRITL

CAAX prenyl protease 1 = target: T1, CAAX prenyl protease 1 (Saccharomyces cerevisiae S288c, UniProt P47154); assay: yeast CAAX protease Ste24 inhibition – biochemical, S. cerevisiae, plate reader, cherry-pick, dose response (AID 488815)
T1 sequence (P47154 whole entry): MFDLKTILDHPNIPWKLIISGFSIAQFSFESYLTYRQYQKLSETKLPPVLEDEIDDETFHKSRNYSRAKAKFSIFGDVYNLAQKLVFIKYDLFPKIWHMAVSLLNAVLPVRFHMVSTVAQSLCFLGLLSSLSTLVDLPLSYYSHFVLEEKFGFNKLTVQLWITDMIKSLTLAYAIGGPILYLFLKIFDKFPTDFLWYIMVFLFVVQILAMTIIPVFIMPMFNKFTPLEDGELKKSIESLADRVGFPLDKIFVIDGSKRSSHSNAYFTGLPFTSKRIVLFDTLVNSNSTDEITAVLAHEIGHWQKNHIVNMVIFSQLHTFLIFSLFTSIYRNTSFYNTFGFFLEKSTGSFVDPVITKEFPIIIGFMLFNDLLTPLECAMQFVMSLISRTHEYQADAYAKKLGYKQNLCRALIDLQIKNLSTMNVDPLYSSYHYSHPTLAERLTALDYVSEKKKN

[2] = target: Mast/stem cell growth factor receptor Kit (Homo sapiens, UniProt P10721); assay type: functional;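 further: KIT entry within a kinase panel assay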
Sequence of Mast/stem cell growth factor receptor Kit (P10721 whole entry): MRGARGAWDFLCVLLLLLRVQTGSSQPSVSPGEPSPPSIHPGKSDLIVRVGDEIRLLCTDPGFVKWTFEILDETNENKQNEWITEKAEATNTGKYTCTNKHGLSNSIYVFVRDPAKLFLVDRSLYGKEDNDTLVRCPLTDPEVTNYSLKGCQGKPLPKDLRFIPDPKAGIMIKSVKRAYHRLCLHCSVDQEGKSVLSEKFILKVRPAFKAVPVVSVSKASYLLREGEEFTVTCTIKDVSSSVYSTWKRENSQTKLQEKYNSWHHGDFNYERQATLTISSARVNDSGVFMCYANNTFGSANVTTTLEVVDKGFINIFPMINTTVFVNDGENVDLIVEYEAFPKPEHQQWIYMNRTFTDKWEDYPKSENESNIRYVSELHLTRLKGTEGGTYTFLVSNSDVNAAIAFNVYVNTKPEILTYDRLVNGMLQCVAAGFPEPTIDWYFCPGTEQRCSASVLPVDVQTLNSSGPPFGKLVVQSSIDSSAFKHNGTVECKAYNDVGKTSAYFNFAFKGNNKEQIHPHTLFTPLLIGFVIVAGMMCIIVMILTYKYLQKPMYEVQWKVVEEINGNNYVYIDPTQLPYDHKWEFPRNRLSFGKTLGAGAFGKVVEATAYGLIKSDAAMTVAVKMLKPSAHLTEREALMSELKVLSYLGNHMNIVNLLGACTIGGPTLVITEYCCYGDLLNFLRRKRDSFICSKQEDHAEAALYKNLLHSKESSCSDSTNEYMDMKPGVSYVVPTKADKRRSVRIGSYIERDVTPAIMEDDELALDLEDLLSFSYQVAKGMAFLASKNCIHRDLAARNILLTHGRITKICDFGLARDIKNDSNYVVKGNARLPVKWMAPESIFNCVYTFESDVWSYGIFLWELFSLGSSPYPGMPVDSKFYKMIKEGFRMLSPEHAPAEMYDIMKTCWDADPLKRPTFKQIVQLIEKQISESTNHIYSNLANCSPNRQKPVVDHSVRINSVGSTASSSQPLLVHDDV

[3] = target: Hepatocyte growth factor receptor (Homo sapiens, UniProt P08581); assay type: functional;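 further: kinase panel profiling across the kinome, with MET as the panel member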
Sequence of Hepatocyte growth factor receptor (P08581 whole entry): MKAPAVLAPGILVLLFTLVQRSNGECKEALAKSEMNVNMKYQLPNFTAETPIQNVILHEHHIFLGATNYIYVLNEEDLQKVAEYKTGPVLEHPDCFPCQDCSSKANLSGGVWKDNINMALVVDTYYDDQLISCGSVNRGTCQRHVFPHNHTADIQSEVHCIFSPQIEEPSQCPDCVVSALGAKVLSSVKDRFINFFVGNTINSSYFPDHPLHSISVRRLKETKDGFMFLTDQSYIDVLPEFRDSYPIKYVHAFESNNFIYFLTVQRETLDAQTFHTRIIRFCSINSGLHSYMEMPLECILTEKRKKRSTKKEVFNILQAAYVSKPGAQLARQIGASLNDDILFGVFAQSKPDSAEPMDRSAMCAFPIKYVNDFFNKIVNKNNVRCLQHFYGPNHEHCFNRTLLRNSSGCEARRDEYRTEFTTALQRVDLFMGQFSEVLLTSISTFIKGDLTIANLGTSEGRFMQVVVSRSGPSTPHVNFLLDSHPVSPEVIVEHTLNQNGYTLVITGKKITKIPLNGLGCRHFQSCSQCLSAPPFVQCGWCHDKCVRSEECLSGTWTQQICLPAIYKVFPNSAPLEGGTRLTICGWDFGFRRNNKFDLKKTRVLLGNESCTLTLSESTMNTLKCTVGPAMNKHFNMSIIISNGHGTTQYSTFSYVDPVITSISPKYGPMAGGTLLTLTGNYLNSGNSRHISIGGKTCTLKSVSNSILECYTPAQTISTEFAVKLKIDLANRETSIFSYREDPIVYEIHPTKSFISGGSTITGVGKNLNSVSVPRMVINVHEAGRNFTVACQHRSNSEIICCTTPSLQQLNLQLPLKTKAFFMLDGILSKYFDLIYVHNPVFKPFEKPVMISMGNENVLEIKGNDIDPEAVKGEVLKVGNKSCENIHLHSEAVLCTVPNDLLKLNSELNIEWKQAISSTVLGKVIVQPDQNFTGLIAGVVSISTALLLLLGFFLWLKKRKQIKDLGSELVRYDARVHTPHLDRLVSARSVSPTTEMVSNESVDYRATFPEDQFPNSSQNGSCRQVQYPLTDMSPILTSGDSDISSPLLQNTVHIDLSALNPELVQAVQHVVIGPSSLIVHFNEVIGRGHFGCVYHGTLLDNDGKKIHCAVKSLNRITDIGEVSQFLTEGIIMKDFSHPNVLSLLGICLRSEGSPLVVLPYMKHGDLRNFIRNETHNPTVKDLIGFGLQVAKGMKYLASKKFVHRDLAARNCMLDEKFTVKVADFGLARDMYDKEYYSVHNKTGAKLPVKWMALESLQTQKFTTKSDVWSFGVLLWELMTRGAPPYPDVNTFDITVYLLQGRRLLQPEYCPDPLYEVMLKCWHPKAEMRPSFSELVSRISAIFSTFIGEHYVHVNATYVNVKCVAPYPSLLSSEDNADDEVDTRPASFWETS

[4] = target: Platelet-derived growth factor receptor beta (Homo sapiens, UniProt P09619); assay type: functional;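 further: value comes from a kinome panel, with PDGFRB tested as one panel member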
Sequence of Platelet-derived growth factor receptor beta (P09619 whole entry): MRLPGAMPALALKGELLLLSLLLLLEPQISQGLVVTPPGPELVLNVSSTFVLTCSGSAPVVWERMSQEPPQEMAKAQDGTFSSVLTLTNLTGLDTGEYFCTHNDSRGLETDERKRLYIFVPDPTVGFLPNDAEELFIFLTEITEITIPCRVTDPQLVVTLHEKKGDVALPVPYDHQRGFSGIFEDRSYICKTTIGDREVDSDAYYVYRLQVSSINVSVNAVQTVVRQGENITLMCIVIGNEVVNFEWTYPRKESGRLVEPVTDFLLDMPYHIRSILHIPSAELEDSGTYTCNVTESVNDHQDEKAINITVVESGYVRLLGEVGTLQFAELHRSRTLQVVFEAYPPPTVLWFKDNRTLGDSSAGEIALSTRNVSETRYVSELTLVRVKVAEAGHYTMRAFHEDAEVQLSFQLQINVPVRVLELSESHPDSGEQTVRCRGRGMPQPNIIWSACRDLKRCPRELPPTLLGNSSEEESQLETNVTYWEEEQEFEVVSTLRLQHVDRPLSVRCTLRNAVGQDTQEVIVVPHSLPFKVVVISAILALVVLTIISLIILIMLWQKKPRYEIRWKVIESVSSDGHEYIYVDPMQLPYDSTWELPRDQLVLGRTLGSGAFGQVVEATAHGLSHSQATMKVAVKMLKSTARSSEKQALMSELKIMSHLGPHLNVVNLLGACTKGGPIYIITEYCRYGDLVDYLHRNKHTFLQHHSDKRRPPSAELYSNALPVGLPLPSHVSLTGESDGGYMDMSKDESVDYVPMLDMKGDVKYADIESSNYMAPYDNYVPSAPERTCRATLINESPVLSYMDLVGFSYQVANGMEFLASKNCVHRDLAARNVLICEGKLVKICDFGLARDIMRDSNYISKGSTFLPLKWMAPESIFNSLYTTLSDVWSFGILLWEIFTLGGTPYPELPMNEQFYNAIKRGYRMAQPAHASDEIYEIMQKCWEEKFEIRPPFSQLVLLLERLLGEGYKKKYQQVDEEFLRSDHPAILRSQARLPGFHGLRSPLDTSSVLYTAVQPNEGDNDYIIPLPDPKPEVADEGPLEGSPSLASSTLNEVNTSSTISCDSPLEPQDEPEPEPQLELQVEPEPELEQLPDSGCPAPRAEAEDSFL

[5] = target: G protein-coupled receptor kinase 5 (Homo sapiens, UniProt P34947); assay: Navigating the Kinome. Panel member name: GPRK5; assay type: functional
Sequence of G protein-coupled receptor kinase 5 (P34947 whole entry): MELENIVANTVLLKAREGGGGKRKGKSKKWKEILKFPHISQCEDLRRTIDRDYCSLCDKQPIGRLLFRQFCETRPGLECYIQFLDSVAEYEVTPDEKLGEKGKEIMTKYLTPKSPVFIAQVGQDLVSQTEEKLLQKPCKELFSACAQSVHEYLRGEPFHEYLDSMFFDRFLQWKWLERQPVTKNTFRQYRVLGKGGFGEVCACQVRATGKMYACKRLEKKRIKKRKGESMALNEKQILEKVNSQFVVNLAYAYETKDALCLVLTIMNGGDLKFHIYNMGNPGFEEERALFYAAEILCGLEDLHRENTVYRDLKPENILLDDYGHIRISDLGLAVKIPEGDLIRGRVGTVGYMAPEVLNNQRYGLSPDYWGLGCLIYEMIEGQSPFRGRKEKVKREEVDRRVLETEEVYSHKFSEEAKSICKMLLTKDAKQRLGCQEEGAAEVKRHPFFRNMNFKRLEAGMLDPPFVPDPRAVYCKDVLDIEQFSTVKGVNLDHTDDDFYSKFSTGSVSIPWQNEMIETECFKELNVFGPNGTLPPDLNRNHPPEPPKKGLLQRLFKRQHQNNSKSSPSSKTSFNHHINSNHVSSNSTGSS

[6] = target: T2, Histone-lysine N-methyltransferase NSD2 (Homo sapiens, UniProt O96028); assay type: biochemical
T2 sequence (O96028 whole entry): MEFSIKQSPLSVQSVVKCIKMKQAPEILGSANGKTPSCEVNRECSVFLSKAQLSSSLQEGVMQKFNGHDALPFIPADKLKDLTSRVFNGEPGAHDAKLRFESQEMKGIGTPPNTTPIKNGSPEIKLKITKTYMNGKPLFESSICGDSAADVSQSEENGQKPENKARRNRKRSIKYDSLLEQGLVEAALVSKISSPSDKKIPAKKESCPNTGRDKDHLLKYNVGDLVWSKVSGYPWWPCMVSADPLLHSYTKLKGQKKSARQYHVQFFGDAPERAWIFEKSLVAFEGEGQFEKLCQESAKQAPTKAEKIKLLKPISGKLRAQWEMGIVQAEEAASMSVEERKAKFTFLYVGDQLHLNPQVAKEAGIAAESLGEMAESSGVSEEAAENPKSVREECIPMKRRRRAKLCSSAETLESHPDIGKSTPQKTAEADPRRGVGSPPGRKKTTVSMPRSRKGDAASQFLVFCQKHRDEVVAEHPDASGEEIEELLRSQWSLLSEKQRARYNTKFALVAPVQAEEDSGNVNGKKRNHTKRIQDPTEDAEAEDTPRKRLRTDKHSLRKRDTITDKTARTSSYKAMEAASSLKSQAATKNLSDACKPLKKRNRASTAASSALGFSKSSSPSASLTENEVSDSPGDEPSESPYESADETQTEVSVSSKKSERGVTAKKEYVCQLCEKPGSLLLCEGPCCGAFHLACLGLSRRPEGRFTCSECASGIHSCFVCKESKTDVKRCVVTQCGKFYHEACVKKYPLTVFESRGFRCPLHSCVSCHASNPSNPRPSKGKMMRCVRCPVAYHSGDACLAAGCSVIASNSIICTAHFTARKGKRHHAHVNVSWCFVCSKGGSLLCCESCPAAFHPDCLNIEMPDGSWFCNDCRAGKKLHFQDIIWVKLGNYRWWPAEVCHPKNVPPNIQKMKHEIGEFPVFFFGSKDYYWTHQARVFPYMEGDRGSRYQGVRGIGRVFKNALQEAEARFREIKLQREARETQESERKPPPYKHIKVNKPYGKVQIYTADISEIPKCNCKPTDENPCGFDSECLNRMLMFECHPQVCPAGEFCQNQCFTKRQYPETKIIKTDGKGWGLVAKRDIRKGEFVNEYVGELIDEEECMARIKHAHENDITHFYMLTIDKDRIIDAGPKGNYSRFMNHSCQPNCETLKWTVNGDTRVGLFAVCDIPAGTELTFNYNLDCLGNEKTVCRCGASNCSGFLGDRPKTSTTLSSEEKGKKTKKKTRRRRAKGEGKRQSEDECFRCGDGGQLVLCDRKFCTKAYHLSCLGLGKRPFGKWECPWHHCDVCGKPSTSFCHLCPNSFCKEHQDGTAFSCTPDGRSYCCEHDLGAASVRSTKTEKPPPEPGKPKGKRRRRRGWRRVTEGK

[7] = Vero E6 cell cytotoxicity, dose response, cytotoxicity control for non-replicating M. tuberculosis project, secondary assay (AID 492998); assay type: functional, VeroE6; details: Vero C1008

## CCOC(=O)c1ccc(NC2=CC(=O)C(=O)c3ccccc32)cc1
[1]
  CC50: 21.1 µM (active)
Vero
  CC50: 22.3 µM (active)

## OC(CNCCC1C=Nc2ccccc21)Cn1c2ccc(Cl)cc2c2cc(Cl)ccc21 (stereo not given)
CAAX prenyl protease 2
  AC50: 8.21 µM (active)
CAAX prenyl protease 1
  AC50: 4.42 µM (active)

## NC1CCC(Nc2nc(Cl)cc(-c3c[nH]c4ncccc34)n2)CC1 (stereo not given)
[2]
  Ki: > 3.98 µM (inactive)

## O=C(O)C1CN(Cc2ccc(OCc3ccccc3)cc2Cl)C1
[3]
  Ki: > 2.51 µM (inactive)
[4]
  Ki: > 2 µM (inactive)
[5]
  Ki: > 3.98 µM (inactive)

## COc1ccc(C(=O)c2nccc3cc(OC)c(OC)cc23)cc1OC
[6]
  AC50: 6.77 µM (active)

## Cc1ccccc1-c1cc2c(nn1)-c1ccccc1C2=O
[7]
  CC50: 9.21 µM (active)
